Test: recombinant UMI read abundance after kanamycin selection (control-corrected) (log10(CPM+1)); higher = more efficient recombination; extreme values may be limits of the assay; sequences stand for … in AGTGCAGAGAAAATCGGCCAGTTTTCTCTGCCTGCAGTCCGCATGCCGTGGGACCCCTTGGGTTCTAACCTGTTGCCTAGATTTATGCAGCGGACTGCCTTTCTCCCAAAGTGATAAACCGG…AGGTTGGTTTCACT; site = the 11-nt donor
Outline: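 For the IS621 bridge recombinase, a pooled Escherichia coli screen tested donor and donor-binding-loop pairs. Cells received the pair library together with a target plasmid encoding a fixed target and T7-inducible recombinase, then went onto IPTG (0.07 mM) plus kanamycin or unselected plates in duplicate. After PCR across the donor–target junction and sequencing, recombinant UMI counts were normalized to CPM, averaged, and scaled by control-derived factors. Each value is given as log10(CPM+1).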
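Note: IS621 bridge recombinase in Escherichia coli cells against a fixed T5 target plasmid.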

Sequence	recombinant UMI read abundance (log10)
GCCACGCCATGGACCGGTTTTCCCGGTAATCCGTATTTGTA (site GCCACGACTTA)	0.00736
GCCACGCCATGGACCGGTTTTCCCGGTAATCCGTATTTGTA (site GCCACGCCTAA)	0.0376
GCCACGCCATGGACCGGTTTTCCCGGTAATCCGTATTTGTA (site GCCACGCCTCA)	0.00817
GCCACGCCATGGACCGGTTTTCCCGGTAATCCGTATTTGTA (site GCCACGCCTGA)	0
GCCACGCCATGGACCGGTTTTCCCGGTAATCCGTATTTGTA (site GCCACGCCTTA)	0.289
GCCACGCCATGGACCGGTTTTCCCGGTAATCCGTATTTGTA (site GCCACGCCTTC)	0.00289
GCCACGCCATGGACCGGTTTTCCCGGTAATCCGTATTTGTA (site GCCACGCCTTG)	0.0133
GCCACGCCATGGACCGGTTTTCCCGGTAATCCGTATTTGTA (site GCCACGCCTTT)	0.0209
GCCACGCCATGGACCGGTTTTCCCGGTAATCCGTATTTGTA (site GCCACGGCTTA)	0.0146
GCCACGCCATGGACCGGTTTTCCCGGTAATCCGTATTTGTA (site GCCACGTCTTA)	1.45
GCCACGCCATGGACCGGTTTTCCCGGTAATCCGTATTTGTA (site GCCACTCCTTA)	0
GCCACGCCATGGACCGGTTTTCCCGGTAATCCGTATTTGTA (site GCCAGGCCTTA)	0.013
GCCACGCCATGGACCGGTTTTCCCGGTAATCCGTATTTGTA (site GCCATGCCTTA)	0.465
GCCACGCCATGGACCGGTTTTCCCGGTAATCCGTATTTGTA (site GCCCCGCCTTA)	0.00659
GCCACGCCATGGACCGGTTTTCCCGGTAATCCGTATTTGTA (site GCCGCGCCTTA)	0.00414
GCCACGCCATGGACCGGTTTTCCCGGTAATCCGTATTTGTA (site GCCTCGCCTTA)	0.183
GCCACGCCATGGACCGGTTTTCCCGGTAATCCGTATTTGTA (site GCGACGCCTTA)	0.00719
GCCACGCCATGGACCGGTTTTCCCGGTAATCCGTATTTGTA (site GCTACGCCTTA)	0.0265
GCCACGCCATGGACCGGTTTTCCCGGTAATCCGTATTTGTA (site GGCACGCCTTA)	0.204
GCCACGCCATGGACCGGTTTTCCCGGTAATCCGTATTTGTA (site GTCACGCCTTA)	0.00531
GCCACGCCATGGACCGGTTTTCCCGGTAATCCGTATTTGTA (site TCCACGCCTTA)	0.00575
GCCACTCCATGGACCGGTTTTCCCGGTAATCCGTATTTGGG (site GCCACTCCTCC)	0.0141
GCCACTCCATGGACCGGTTTTCCCGGTAATCCGTATTTGTA (site GCCACACCTTA)	0.0288

Sequence	recombinant UMI read abundance (log10)
GCCACTCCATGGACCGGTTTTCCCGGTAATCCGTATTTGTA (site GCCACCCCTTA)	0.0122
GCCACTCCATGGACCGGTTTTCCCGGTAATCCGTATTTGTA (site GCCACGCCTTA)	0.00354
GCCACTCCATGGACCGGTTTTCCCGGTAATCCGTATTTGTA (site GCCACTCCTTA)	1.35
GCCAGGCCATGGACCGGTTTTCCCGGTAATCCGTATTTGAA (site GCCAGGCCTTT)	0.0165
GCCCAATCATGGACCGGTTTTCCCGGTAATCCGTATTTGGT (site GCCCAATCTAC)	1.53
GCCCAGCCATGGACCGGTTTTCCCGGTAATCCGTATTTGGT (site GCCCAGCCTAC)	0.0164
GCCCGCTCATGGACCGGTTTTCCCGGTAATCCGTATTTGCG (site GCCCGCTCTCG)	2.44
GCCCGTACATGGACCGGTTTTCCCGGTAATCCGTATTTGCT (site GCCCGTACTAG)	2.32
GCCCTTGCATGGACCGGTTTTCCCGGTAATCCGTATTTGAC (site GCCCTTGCTGT)	1.06
GCCGATGCATGGACCGGTTTTCCCGGTAATCCGTATTTGGA (site GCCGATGCTTC)	1.45
GCCGCGGCATGGACCGGTTTTCCCGGTAATCCGTATTTGGA (site GCCGCGGCTTC)	0.468
GCCTACACATGGACCGGTTTTCCCGGTAATCCGTATTTGTC (site GCCTACACTGA)	1.8
GCCTACCCATGGACCGGTTTTCCCGGTAATCCGTATTTGGC (site GCCTACCCTGC)	0
GCCTATGCATGGACCGGTTTTCCCGGTAATCCGTATTTGTC (site GCCTATGCTGA)	1.57
GCCTCGCCATGGACCGGTTTTCCCGGTAATCCGTATTTGCT (site GCCTCGCCTAG)	0
GCCTCGCCATGGACCGGTTTTCCCGGTAATCCGTATTTGTA (site GCCACGCCTTA)	0.00387
GCCTCGCCATGGACCGGTTTTCCCGGTAATCCGTATTTGTA (site GCCCCGCCTTA)	0.633
GCCTCGCCATGGACCGGTTTTCCCGGTAATCCGTATTTGTA (site GCCGCGCCTTA)	0.00878
GCCTCGCCATGGACCGGTTTTCCCGGTAATCCGTATTTGTA (site GCCTCGCCTTA)	0.0151
GCCTGAACATGGACCGGTTTTCCCGGTAATCCGTATTTGCA (site GCCTGAACTTG)	2.12
GCCTTATCATGGACCGGTTTTCCCGGTAATCCGTATTTGAA (site GCCTTATCTTT)	0.731
GCGAAAACATGGACCGGTTTTCCCGGTAATCCGTATTTGCG (site GCGAAAACTAG)	0
GCGAAAACATGGACCGGTTTTCCCGGTAATCCGTATTTGCG (site GCGAAAACTCG)	2.63

Sequence	recombinant UMI read abundance (log10)
GCGAAAACATGGACCGGTTTTCCCGGTAATCCGTATTTGCG (site GCGAAAACTGG)	0
GCGAAAACATGGACCGGTTTTCCCGGTAATCCGTATTTGCG (site GCGAAAACTTG)	0
GCGAAAACATGGACCGGTTTTCCCGGTAATCCGTATTTGGT (site GCGAAAACTAA)	0.0141
GCGAAAACATGGACCGGTTTTCCCGGTAATCCGTATTTGGT (site GCGAAAACTAC)	1.58
GCGAAAACATGGACCGGTTTTCCCGGTAATCCGTATTTGGT (site GCGAAAACTAG)	0
GCGAAAACATGGACCGGTTTTCCCGGTAATCCGTATTTGGT (site GCGAAAACTAT)	0
GCGAAAGCATGGACCGGTTTTCCCGGTAATCCGTATTTGCT (site GCGAAAACTAG)	0
GCGAAAGCATGGACCGGTTTTCCCGGTAATCCGTATTTGCT (site GCGAAACCTAG)	0
GCGAAAGCATGGACCGGTTTTCCCGGTAATCCGTATTTGCT (site GCGAAAGCTAG)	1.01
GCGAAAGCATGGACCGGTTTTCCCGGTAATCCGTATTTGCT (site GCGAAATCTAG)	0
GCGAACACATGGACCGGTTTTCCCGGTAATCCGTATTTGCT (site GCGAAAACTAG)	0
GCGAACACATGGACCGGTTTTCCCGGTAATCCGTATTTGCT (site GCGAACACTAG)	1.91
GCGAACACATGGACCGGTTTTCCCGGTAATCCGTATTTGCT (site GCGAAGACTAG)	0
GCGAACACATGGACCGGTTTTCCCGGTAATCCGTATTTGCT (site GCGAATACTAG)	0.025
GCGAAGCCATGGACCGGTTTTCCCGGTAATCCGTATTTGTG (site GCGAAGCCTCA)	0.643
GCGAAGCCATGGACCGGTTTTCCCGGTAATCCGTATTTGTG (site GCGAAGCCTCC)	0.021
GCGAAGCCATGGACCGGTTTTCCCGGTAATCCGTATTTGTG (site GCGAAGCCTCG)	0.0255
GCGAAGCCATGGACCGGTTTTCCCGGTAATCCGTATTTGTG (site GCGAAGCCTCT)	1.98
GCGAAGCCATGGACCGGTTTTCCCGGTAATCCGTATTTGTT (site GCGAAGCCTAA)	1.14
GCGACAACATGGACCGGTTTTCCCGGTAATCCGTATTTGCT (site GCGAAAACTAG)	0
GCGACAACATGGACCGGTTTTCCCGGTAATCCGTATTTGCT (site GCGACAACTAG)	1.97
GCGACAACATGGACCGGTTTTCCCGGTAATCCGTATTTGCT (site GCGAGAACTAG)	0
